In patent US20240358727A1, “MICROSCALE THERMOPHORESIS TO EVALUATE CHANNEL LIPID INTERACTIONS AND METHODS OF TREATING NAV CHANNELS RELATED DISEASES” (Northeastern University, priority 2023, published 2024):
“Also recorded” adds a separate entry of the source.

Experiments:
[1] = target: T1, Nav1.5 channel currents (INa, ILATE) in M3q iPS-CMs (Homo sapiens, UniProt Q14524); assay: Whole-cell patch-clamp of INa and ILATE in M3q-DREADD iPS-CMs activated with CNO; format: cell-based; conditions: for effect on CNO-evoked increase in ILATE / effect on CNO-evoked leftwards shifts in V½ACT and V½SSI: 200 μM diC8-PIP2 in pipette; for effect on CNO (M3q activation) effects on V½ACT, V½SSI and ILATE: staurosporine 1 μM 1-hour preincubation, BAPTA 10 mM in pipette, U73122 5 μM, diC8-PIP2 200 μM in pipette
T1 construct: host or cells: human iCell^2 iPS cardiomyocytes (transfected with M3q DREADD in A5; endogenous AT1 receptor in A7)
Protocol: (§1) Control is CNO application to cells with no M3q. Mean±SD % fluorescence change for 20 cells per group; an example photobleaching montage is inset. […] Leftwards shifts in each parameter are precluded by U73122 or by 200 μM diC8-PIP2 in the pipette but are not sensitive to staurosporine or BAPTA. The cells were perfused with an extracellular solution containing (in mM): 130 NaCl, 5 CsCl, 1.2 MgCl2, 1.5 CaCl2), 8 Glucose, 10 HEPES (pH7.4). […] nitrendipine was added to the recording solution to block Ca^2+ flux through Cav channels. Patch pipettes with a resistance of 2.5-4 MQ are filled with a solution containing (in mM): 60 CsCl, 80 CsF, 2 MgCl2, 10 EGTA, 5 Na2ATP, 5 HEPES (pH 7.4). Currents were low pass (Bessel) filtered at 9 kHz and digitized at 50 kHz and were collected from cells with a series resistance <15 MQ; this was compensated by 70%.
Results. Studies are designed to evaluate if hydrolysis of PIP2 modulates Nav1.5 channel currents in cardiomyocytes. To perform these experiments, we used human iPS cardiomyocytes (iCell^2 iPS-CMs) from Fuji-Film Cellular Dynamics. These iPS-CMs are a valuable model system for human cardiomyocytes that retain many of the key characteristics of the native cells. Here, we transfected the iPS-CMs to express the Gαq-coupled M3q Designer Receptors Exclusively Activated by Designer Drugs (DREADD) receptor. We use a magnetic transfection system from Oz Biosciences that we have previously employed with cardiomyocytes. First, we tested the efficacy of M3q to hydrolyze PIP2 in our model system. To accomplish this, we studied uncoupling of the PIP2 biosensor iRFP-PHPLCδ1 from the plasma membrane in response to chemogenic activation of M3q by 100 nM clozapine N-oxide (CNO, Tocris Biosciences).
These findings are consistent with our prior observations and the work using optogenetically activated PI-phosphatases to deplete PIP2 in HEK293 cells […] Xenopus laevis oocytes. […] Having established a time frame for PIP2 hydrolysis in our system, we used whole-cell patch-clamp to study INa in paired experiments, before and after chemogenic activation of M3q. Applying 100 nM CNO evoked a leftward shift in the current-voltage (I-V) relationship of INa such that peak INa shifted from −25 to −35 mV. At −35 mV, the peak current-density increased from −220±5 pA/pF to −266±4 pA/pF at −35 mV (n=8, P<0.001, paired Student's t-test). […] However, in contrast to our findings with Nav1.4, activating M3q signaling also left-shifted the steady state inactivation curve of Nav1.5 (V½SSI), from −81.4±2 to −89.7±2 mV (n=8, P<0.01, paired t-test; FIGS. 2C, 2D). These studies indicate that Nav1.5 channels are regulated by hydrolysis of PIP2 and that there are distinctions between PIP2 regulation of Nav1.5 and Nav1.4.
Next, we studied the effect of M3q-activation on ILATE by recording currents evoked by a 400 ms depolarizing pulse to −20 mV before and during receptor activation. The magnitude of ILATE represents the mean current 150-200 ms after peak INa and is expressed as a percentage of peak INa. […] The effects of M3q activation on V½ACT, V½SSI, and the development of ILATE were not affected by staurosporine (1 μM, 1-hour preincubation) or BAPTA (10 mM in the recording pipette), making a role for IP3 or DAG unlikely. […] Similar data were obtained for Nav1.5 expressed with Navβ1 and the M3q-DREADD receptor in HEK293T cells. This experiment validates that the findings are not restricted to a particular model system or cellular environment.
Measure modulation in INa and ILATE by endogenous Gαq signaling. Like native cardiomyocytes, human iPS-CMs express AT1 receptors. Here, the effects of Ang II (Tocris) on Nav1.5 channel function in iPS-CMs is tested using four whole-cell patch-clamp recording protocols. […]

[2] = system: PIP2 hydrolysis (iRFP-PHPLCδ1 biosensor); assay: TIRFM uncoupling of PIP2 biosensor iRFP-PHPLCδ1 from the membrane of M3q iPS-CMs; format: cell-based, human; conditions: 100 nM CNO
Protocol: as §1
Results. Studies are designed to evaluate if hydrolysis of PIP2 modulates Nav1.5 channel currents in cardiomyocytes. To perform these experiments, we used human iPS cardiomyocytes (iCell^2 iPS-CMs) from Fuji-Film Cellular Dynamics. These iPS-CMs are a valuable model system for human cardiomyocytes that retain many of the key characteristics of the native cells. Here, we transfected the iPS-CMs to express the Gαq-coupled M3q Designer Receptors Exclusively Activated by Designer Drugs (DREADD) receptor. […]

[3] = system: Nav1.5 channel currents (INa, ILATE) in iPS-CMs; assay: Whole-cell patch-clamp of INa and ILATE in iPS-CMs treated with Ang II; format: cell-based, human; conditions: 100 nM Ang II
Protocol: Control is CNO application to cells with no M3q. Mean±SD % fluorescence change for 20 cells per group; an example photobleaching montage is inset. […] The cells were perfused with an extracellular solution containing (in mM): 130 NaCl, 5 CsCl, 1.2 MgCl2, 1.5 CaCl2), 8 Glucose, 10 HEPES (pH7.4). […] nitrendipine was added to the recording solution to block Ca^2+ flux through Cav channels. Patch pipettes with a resistance of 2.5-4 MQ are filled with a solution containing (in mM): 60 CsCl, 80 CsF, 2 MgCl2, 10 EGTA, 5 Na2ATP, 5 HEPES (pH 7.4). Currents were low pass (Bessel) filtered at 9 kHz and digitized at 50 kHz and were collected from cells with a series resistance <15 MQ; this was compensated by 70%.
The data are mean±sem for 4 cells per experiment.
Measure modulation in INa and ILATE by endogenous Gαq signaling. Like native cardiomyocytes, human iPS-CMs express AT1 receptors. Here, the effects of Ang II (Tocris) on Nav1.5 channel function in iPS-CMs is tested using four whole-cell patch-clamp recording protocols. Recording solutions and amplifier settings are described in the legend of FIG. 2: • i) I-V (and G-V): The current-voltage (I-V) relationship reports on current-density across the physiological voltage range and provides a conductance voltage (G-V) relationship that is normalized and fitted with a Boltzmann function to illustrate the voltage-dependence of activation, V½ACT. • ii) SSI: a paired-pulse protocol to determine the voltage-dependence of steady-state inactivation (SSI). The prepulse is incrementally depolarized while the test-pulse remains at a fixed amplitude. […] This parameter is studied using paired steps to −30 mV and incrementally increasing the duration between the pulses. • iv) ILATE is studied using 400 ms depolarizing pulses to −20 mV. The pulse is repeated every 10 seconds for the duration of a time-course study. Subsequently, the cell is exposed to the state-dependent, late-current blocker ranolazine at 1 μM, as previously described. The magnitude of ILATE represents the mean current 150-200 ms after peak INa and is expressed as a percentage of peak INa, following ranolazine subtraction. The time course of a change in ILATE and the change in the time constant of fast inactivation are evaluated.
In each case, Nav1.5 currents is studied before and after the administration of Ang II. […] Next, we study the concentration-dependence of these effects, spanning the pathophysiological range (20-200 nM). Utilizing a non-saturating concentration of Ang II, we introduce pharmacological tools to determine the effects on Nav1.5 function attributable to PIP2 hydrolysis. […] Subsequently, we block PIP2 hydrolysis using the PLCβ inhibitor, U73122 (5 μM, Tocris Biosciences). […] We test if downstream products of PIP2 hydrolysis alter Nav1.5 currents using the PKC inhibitor staurosporine (1 μM, 1-hour preincubation, Sigma-Aldrich) and the Ca^2+ chelator, BAPTA (10 mM in the pipette, Sigma-Aldrich).

T1 sequence (Q14524 whole entry): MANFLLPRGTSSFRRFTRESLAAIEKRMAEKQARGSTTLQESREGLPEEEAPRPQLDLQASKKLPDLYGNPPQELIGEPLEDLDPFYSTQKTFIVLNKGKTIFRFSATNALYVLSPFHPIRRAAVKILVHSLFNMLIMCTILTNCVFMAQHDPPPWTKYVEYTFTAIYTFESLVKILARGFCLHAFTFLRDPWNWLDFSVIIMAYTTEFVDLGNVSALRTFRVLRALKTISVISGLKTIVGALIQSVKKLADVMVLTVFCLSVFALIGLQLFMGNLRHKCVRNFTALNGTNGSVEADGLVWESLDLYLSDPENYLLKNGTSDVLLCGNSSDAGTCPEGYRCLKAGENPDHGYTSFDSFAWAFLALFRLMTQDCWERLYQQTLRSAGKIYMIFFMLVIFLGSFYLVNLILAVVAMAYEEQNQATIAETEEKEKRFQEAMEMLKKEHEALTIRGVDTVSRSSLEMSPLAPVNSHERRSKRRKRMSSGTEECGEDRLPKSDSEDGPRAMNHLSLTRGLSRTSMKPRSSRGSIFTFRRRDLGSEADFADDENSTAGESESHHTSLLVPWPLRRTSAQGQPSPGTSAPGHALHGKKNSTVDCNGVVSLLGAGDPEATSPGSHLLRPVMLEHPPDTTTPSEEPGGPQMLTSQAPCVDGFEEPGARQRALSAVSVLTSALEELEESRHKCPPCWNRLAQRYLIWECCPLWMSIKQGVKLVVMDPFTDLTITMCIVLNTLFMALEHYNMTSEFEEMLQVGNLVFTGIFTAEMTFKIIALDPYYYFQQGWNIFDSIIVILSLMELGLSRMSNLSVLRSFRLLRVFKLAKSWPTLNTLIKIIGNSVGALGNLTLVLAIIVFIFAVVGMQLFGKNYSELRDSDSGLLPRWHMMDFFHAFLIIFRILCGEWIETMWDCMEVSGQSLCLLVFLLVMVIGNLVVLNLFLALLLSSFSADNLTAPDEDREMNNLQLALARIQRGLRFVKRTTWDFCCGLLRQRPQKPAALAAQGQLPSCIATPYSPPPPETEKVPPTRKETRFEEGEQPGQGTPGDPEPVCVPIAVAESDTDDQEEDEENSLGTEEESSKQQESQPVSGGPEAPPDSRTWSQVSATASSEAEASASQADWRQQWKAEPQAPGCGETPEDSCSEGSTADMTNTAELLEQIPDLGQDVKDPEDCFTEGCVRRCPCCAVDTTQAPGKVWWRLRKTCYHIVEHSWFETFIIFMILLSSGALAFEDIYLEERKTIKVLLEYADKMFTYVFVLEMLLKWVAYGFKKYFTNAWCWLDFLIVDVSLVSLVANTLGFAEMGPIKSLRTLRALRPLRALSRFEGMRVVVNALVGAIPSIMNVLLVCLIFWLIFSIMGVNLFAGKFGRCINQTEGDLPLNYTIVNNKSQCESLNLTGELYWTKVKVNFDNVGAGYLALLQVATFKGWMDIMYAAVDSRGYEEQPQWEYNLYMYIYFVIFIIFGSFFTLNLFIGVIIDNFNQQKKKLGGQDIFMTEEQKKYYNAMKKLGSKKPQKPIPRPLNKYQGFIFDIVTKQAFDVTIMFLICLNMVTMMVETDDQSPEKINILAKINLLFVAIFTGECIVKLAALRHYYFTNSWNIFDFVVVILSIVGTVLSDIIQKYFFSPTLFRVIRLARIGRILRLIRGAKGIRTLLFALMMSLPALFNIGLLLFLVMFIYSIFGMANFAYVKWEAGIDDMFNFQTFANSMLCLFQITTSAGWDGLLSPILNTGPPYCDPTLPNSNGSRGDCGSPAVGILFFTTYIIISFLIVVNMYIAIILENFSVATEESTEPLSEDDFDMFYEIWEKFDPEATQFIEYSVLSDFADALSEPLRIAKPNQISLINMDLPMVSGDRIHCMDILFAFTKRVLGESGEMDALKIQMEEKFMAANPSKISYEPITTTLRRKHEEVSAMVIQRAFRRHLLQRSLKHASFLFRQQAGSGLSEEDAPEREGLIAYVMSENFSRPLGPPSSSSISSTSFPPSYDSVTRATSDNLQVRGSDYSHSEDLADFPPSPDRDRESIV

Compound: O=C(O)CN(CC(=O)O)c1ccccc1OCCOc1ccccc1N(CC(=O)O)CC(=O)O [BAPTA]
- effect on CNO-evoked increase in ILATE ([1]; 100 nM CNO): not sensitive
- effect on CNO-evoked leftwards shifts in V½ACT and V½SSI ([1]; 100 nM CNO): not sensitive
- effect on CNO (M3q activation) effects on V½ACT, V½SSI and ILATE ([1]; 100 nM CNO): not affected; also recorded: not blocked

Compound: C[N+]1([O-])CCN(C2=Nc3cc(Cl)ccc3Nc3ccccc32)CC1 [CNO, clozapine N-oxide]
- fold increase in ILATE ([1]; 100 nM CNO vs control): 16 fold
- ILATE ([1]; 100 nM CNO, 400 ms pulse to −20 mV, control 0.22%): ~3.9 % of peak INa
- peak current-density ([1]; 100 nM CNO, at −35 mV, before −220±5): −266±4 pA/pF
- leftward shift in V½ACT ([1]; 100 nM CNO, paired before/after): −10±5 mV
- voltage of peak INa (I-V relationship) ([1]; 100 nM CNO, before CNO −25 mV): −35 mV
- V½SSI ([1]; 100 nM CNO, before −81.4±2): −89.7±2 mV
- time to complete uncoupling of iRFP-PHPLCδ1 from the membrane [2]: ≤ 200 s

Compound: COc1ccc2c(c1)CC[C@@H]1[C@@H]2CC[C@]2(C)[C@@H](NCCCCCCN3C(=O)C=CC3=O)CC[C@@H]12 [U73122]
- effect on CNO-evoked increase in ILATE ([1]; 100 nM CNO): precluded
- effect on CNO-evoked leftwards shifts in V½ACT and V½SSI ([1]; 100 nM CNO): precluded
- effect on CNO (M3q activation) effects on V½ACT, V½SSI and ILATE ([1]; 100 nM CNO): blocked; also recorded: abolished
- uncoupling of iRFP-PHPLCδ1 after M3q activation ([2]; U73122 5 μM): does not occur

Compound: CN[C@@H]1C[C@H]2O[C@@](C)([C@@H]1OC)n1c3ccccc3c3c4c(c5c6ccccc6n2c5c31)C(=O)NC4 [staurosporine]
- effect on CNO-evoked increase in ILATE ([1]; 100 nM CNO): not sensitive
- effect on CNO-evoked leftwards shifts in V½ACT and V½SSI ([1]; 100 nM CNO): not sensitive
- effect on CNO (M3q activation) effects on V½ACT, V½SSI and ILATE ([1]; 100 nM CNO): not affected; also recorded: not blocked

Compound: angiotensin II (DRVYIHPF; Angiotensin-2; UniProt P01019 25-32, looked up) [Ang II, agonist of the Gαq-coupled AT1 receptor (Tocris)]
- leftward shift in V½ACT [3]: −7 mV
- leftward shift in V½SSI [3]: −7 mV
- peak INa [3]: increased; also recorded: elevated
- time over which ILATE increased [3]: ~250 s
- ILATE ([3]; before 0.15±0.1): 3.6±0.3 % of IPEAK
